The values below come from US20120183579A1, “COMPOUNDS FOR INFLAMMATION AND IMMUNE-RELATED USES” (Synta Pharmaceuticals Corp., priority 2008, published 2012).

Structures can show the parent of a compound that is named as a salt.

The test concerns IL-2. The experiment in a line: Inhibition of IL-2 production (Jurkat cells activated with PHA, ELISA). To be noted: Homo sapiens, Jurkat, Jurkat/PHA/1% FBS; numeric values. The class given is cell-based. The procedure: Jurkat cells were placed in a 96 well plate (0.5 million cells per well in 1% FBS medium), and then a test compound of this invention was added at different concentrations. After 10 minutes, the cells were activated with PHA (final concentration 2.5 μg/mL) and incubated for 20 hours at 37° C. under 5% CO2. The final volume was 200 μL. Following incubation, the cells were centrifuged, and the supernatants collected and stored at −70° C. prior to assaying for IL-2 production. A commercial ELISA kit (IL-2 Eli-pair, Diaclone Research, Besancon, France) was used to detect production of IL-2, from which dose response curves were obtained. The IC50 value was calculated as the concentration at which 50% of maximum IL-2 production after stimulation was inhibited versus a non-stimulation control.
In general terms: An ELISA detects its analyte on a solid surface through an enzyme-linked reagent.
Take `CCc1cnc(N2CCC(C)=C(c3cnc(NC(=O)c4c(F)cccc4F)cn3)C2)s1` [Compound 47, N-(5-(1-(5-ethylthiazol-2-yl)-4-methyl-1,2,5,6-tetrahydropyridin-3-yl)pyrazin-2-yl)-2,6-difluorobenzamide hydrochloride]: the IC50 – broadly, the point on the concentration scale where inhibition reaches its midpoint – amounted to 35 nM.

In turn, `CC1=C(c2cnc(NC(=O)c3c(F)cccc3Cl)cn2)CN(c2ncc(C)s2)CC1` [Compound 48, 2-chloro-6-fluoro-N-(5-(4-methyl-1-(5-methylthiazol-2-yl)-1,2,5,6-tetrahydropyridin-3-yl)pyrazin-2-yl)benzamide] gave an IC50 of 36 nM.

`CC1=C(c2cnc(NC(=O)c3cccc(F)c3Cl)cn2)CN(c2ncccc2F)CC1` [Compound 49, 2-chloro-3-fluoro-N-(5-(1-(3-fluoropyridin-2-yl)-4-methyl-1,2,5,6-tetrahydropyridin-3-yl)pyrazin-2-yl)benzamide] displayed an IC50 of 36 nM.

`CC1=C(c2cnc(NC(=O)c3c(C)cccc3F)cn2)CN(c2ncc(C)s2)CC1` [Compound 50, 2-fluoro-6-methyl-N-(5-(4-methyl-1-(5-methylthiazol-2-yl)-1,2,5,6-tetrahydropyridin-3-yl)pyrazin-2-yl)benzamide] had an IC50 of 37 nM.

`CC1=C(c2ccc(NC(=O)c3c(Cl)cncc3Cl)cc2)CN(c2ccccn2)CC1` [Compound 51, 3,5-dichloro-N-(4-(4-methyl-1-(pyridin-2-yl)-1,2,5,6-tetrahydropyridin-3-yl)phenyl)isonicotinamide] registered a half-inhibitory concentration (IC50) of 37 nM.

`CC1=C(c2cnc(NC(=O)c3cccc(F)c3C)cn2)CN(c2ncc(C)s2)CC1` [Compound 52, 3-fluoro-2-methyl-N-(5-(4-methyl-1-(5-methylthiazol-2-yl)-1,2,5,6-tetrahydropyridin-3-yl)pyrazin-2-yl)benzamide hydrochloride] gave an IC50 of 40 nM.

In turn, `CC1=C(c2ccc(NC(=O)c3cc(F)ccc3C)nc2)CN(c2nnn(C)n2)CC1` [Compound 53, 5-fluoro-2-methyl-N-(5-(4-methyl-1-(2-methyl-2H-tetrazol-5-yl)-1,2,5,6-tetrahydropyridin-3-yl)pyridin-2-yl) benzamide] gave an IC50 of 40 nM.

As for `CC1=C(c2ccc(NC(=O)c3c(F)cccc3F)cc2)CN(c2nc(Cl)cs2)CC1` [Compound 54, N-(4-(1-(4-chlorothiazol-2-yl)-4-methyl-1,2,5,6-tetrahydropyridin-3-yl)phenyl)-2,6-difluorobenzamide], the IC50 was 40 nM.

`CC1=C(c2ccc(NC(=O)c3c(Cl)cncc3Cl)cc2)CN(c2ncccc2F)CC1` [Compound 55, 3,5-dichloro-N-(4-(1-(3-fluoropyridin-2-yl)-4-methyl-1,2,5,6-tetrahydropyridin-3-yl)phenyl)isonicotinamide]: the IC50 amounted to 41 nM.

Regarding `Cn1nnc(N2CCC(Cl)=C(c3ccc(NC(=O)c4c(F)cccc4Cl)cc3)C2)n1` [Compound 56, 2-chloro-N-(4-(4-chloro-1-(2-methyl-2H-tetrazol-5-yl)-1,2,5,6-tetrahydropyridin-3-yl)phenyl)-6-fluorobenzamide], the IC50 worked out at 41 nM.

Regarding `CC1=C(c2ccc(NC(=O)c3c(C)cccc3Cl)cc2)CN(c2nnn(C)n2)CC1` [Compound 57, 2-chloro-6-methyl-N-(4-(4-methyl-1-(2-methyl-2H-tetrazol-5-yl)-1,2,5,6-tetrahydropyridin-3-yl)phenyl) benzamide], half-maximal inhibition (IC50) was put at 41 nM.

As to `CC1=C(c2ccc(NC(=O)c3c(F)cccc3F)cc2)CN(c2cnccn2)CC1` [Compound 58, 2,6-difluoro-N-(4-(4-methyl-1-(pyrazin-2-yl)-1,2,5,6-tetrahydropyridin-3-yl)phenyl)benzamide], 44 nM corresponded to half-maximal inhibition (IC50).

For `CC1=C(c2cnc(NC(=O)c3c(F)cccc3F)cn2)CN(c2nc(-c3cccnc3)cs2)CC1` [Compound 59, 2,6-difluoro-N-(5-(4-methyl-1-(4-(pyridin-3-yl)thiazol-2-yl)-1,2,5,6-tetrahydropyridin-3-yl)pyrazin-2-yl)benzamide], 44 nM corresponded to half-maximal inhibition (IC50).

`COc1cc(F)c(C(=O)Nc2cnc(C3=C(C)CCN(c4ncccc4F)C3)cn2)c(F)c1` [Compound 60, 2,6-difluoro-N-(5-(1-(3-fluoropyridin-2-yl)-4-methyl-1,2,5,6-tetrahydropyridin-3-yl)pyrazin-2-yl)-4-methoxybenzamide] displayed an IC50 of 46 nM.

In the case of `C=CCOC(=O)N1CCC(C)=C(c2ccc(NC(=O)c3c(F)cccc3F)cc2)C1` [Compound 61, allyl 3-(4-(2,6-difluorobenzamido)phenyl)-4-methyl-5,6-dihydropyridine-1(2H)-carboxylate], the concentration for half-maximal inhibition (IC50) stood at 46 nM.

In the case of `Cn1nnc(N2CCC(Cl)=C(c3cnc(NC(=O)c4cc(F)ccc4Cl)cn3)C2)n1` [Compound 62, 2-chloro-N-(5-(4-chloro-1-(2-methyl-2H-tetrazol-5-yl)-1,2,5,6-tetrahydropyridin-3-yl)pyrazin-2-yl)-5-fluorobenzamide], the IC50 is 49 nM.

In the case of `CC1=C(c2cnc(NC(=O)c3ccc(F)cc3Cl)cn2)CN(c2ncccc2F)CC1` [Compound 63, 2-chloro-4-fluoro-N-(5-(1-(3-fluoropyridin-2-yl)-4-methyl-1,2,5,6-tetrahydropyridin-3-yl)pyrazin-2-yl) benzamide], the IC50 is 49 nM.

Consider `CC1=C(c2ccc(NC(=O)c3c(F)cccc3F)cc2)CN(S(=O)(=O)N(C)C)CC1` [Compound 64, N-(4-(1-(N,N-dimethylsulfamoyl)-4-methyl-1,2,5,6-tetrahydropyridin-3-yl)phenyl)-2,6-difluorobenzamide], for which the midpoint of inhibition, the IC50, lay at 49 nM.
